Test results taken from patent publication US8906944B2, “Compounds as tyrosine kinase modulators” (Allergan, Inc., priority 2009, dated 2014).

How the values were obtained:
Type in all cases: biochemical
[1] = molecular target: VEGFR1 (Homo sapiens, UniProt P17948); test: VEGFR1 enzyme assay; details: Table IV, amide or urea linker
[2] = molecular target: PDGFβ (Homo sapiens, UniProt P09619); test: PDGFβ enzyme assay; details: Table IV, amide or urea linker
[3] = molecular target: T1, human VEGF receptor (VEGFR-2) (Homo sapiens, UniProt P35968); test: VEGFR2 kinase assay; details: His-VEGFR-2 cytoplasmic domain, 3.6 μM ATP; Table IV, amide or urea linker; read-out: VEGFR2 Enzyme IC50
T1 construct: The cytoplasmic domain of the human VEGF receptor (VEGFR-2) was expressed; His; made in house; host or cells: insect cells (baculovirus)
Description: The cytoplasmic domain of the human VEGF receptor (VEGFR-2) was expressed as a Histidine-tagged fusion protein following infection of insect cells using an H is engineered baculovirus. […] Kinase assays were performed in 96 well microtiter plates that were coated overnight with 30 µg of poly-Glu-Tyr (4:1) in 10 mM Phosphate Buffered Saline (PBS), pH 7.2-7.4. The plates were incubated with 1% BSA and then washed four times with PBS prior to starting the reaction. Reactions were carried out in 120 µL reaction volumes containing 3.6 µM ATP in kinase buffer (50 mM Hepes buffer pH 7.4, 20 mM MgCl2, 0.1 mM MnCl2 and 0.2 mM Na3 VO4). […] Reactions were initiated by the addition 0.5 ng of purified protein. Following a ten minute incubation at 25 degree. […] IC50 values for compound inhibition were calculated directly from graphs of optical density (arbitrary units) versus compound concentration following subtraction of blank values.

Chain of VEGFR1 (P17948 27-1338, species assumed): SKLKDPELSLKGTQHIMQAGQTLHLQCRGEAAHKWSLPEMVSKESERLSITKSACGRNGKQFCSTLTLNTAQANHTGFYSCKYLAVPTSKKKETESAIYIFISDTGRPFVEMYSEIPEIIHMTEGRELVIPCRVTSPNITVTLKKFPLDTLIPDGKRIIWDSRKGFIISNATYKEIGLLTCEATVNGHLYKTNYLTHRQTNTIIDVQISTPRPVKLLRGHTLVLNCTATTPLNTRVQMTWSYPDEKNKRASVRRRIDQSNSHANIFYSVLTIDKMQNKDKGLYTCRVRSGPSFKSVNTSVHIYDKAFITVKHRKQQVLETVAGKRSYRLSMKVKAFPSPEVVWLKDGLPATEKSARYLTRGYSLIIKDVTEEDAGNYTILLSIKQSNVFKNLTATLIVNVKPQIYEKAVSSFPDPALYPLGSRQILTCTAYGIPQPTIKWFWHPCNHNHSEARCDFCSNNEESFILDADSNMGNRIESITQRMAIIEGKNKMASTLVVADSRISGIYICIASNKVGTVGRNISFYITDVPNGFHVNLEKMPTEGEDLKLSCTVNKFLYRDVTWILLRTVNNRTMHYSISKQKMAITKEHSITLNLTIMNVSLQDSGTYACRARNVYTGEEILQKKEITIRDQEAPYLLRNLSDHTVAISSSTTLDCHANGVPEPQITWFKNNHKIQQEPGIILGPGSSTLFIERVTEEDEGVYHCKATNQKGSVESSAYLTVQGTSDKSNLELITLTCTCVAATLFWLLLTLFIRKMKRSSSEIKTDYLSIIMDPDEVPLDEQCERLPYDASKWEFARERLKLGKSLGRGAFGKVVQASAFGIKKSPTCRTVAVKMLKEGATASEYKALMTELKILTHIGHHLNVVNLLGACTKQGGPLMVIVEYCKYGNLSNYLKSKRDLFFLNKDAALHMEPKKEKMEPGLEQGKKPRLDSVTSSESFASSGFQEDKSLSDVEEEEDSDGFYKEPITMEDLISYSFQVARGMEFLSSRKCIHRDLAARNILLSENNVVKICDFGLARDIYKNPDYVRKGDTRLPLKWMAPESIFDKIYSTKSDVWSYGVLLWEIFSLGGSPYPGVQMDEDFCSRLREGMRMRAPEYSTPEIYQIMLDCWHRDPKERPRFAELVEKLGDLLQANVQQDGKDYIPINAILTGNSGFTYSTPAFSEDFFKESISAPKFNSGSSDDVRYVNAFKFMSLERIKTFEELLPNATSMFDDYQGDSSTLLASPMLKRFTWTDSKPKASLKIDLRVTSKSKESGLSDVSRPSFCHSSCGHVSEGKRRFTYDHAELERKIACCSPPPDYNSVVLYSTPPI
T1 sequence (P35968 786-1356 limits assumed): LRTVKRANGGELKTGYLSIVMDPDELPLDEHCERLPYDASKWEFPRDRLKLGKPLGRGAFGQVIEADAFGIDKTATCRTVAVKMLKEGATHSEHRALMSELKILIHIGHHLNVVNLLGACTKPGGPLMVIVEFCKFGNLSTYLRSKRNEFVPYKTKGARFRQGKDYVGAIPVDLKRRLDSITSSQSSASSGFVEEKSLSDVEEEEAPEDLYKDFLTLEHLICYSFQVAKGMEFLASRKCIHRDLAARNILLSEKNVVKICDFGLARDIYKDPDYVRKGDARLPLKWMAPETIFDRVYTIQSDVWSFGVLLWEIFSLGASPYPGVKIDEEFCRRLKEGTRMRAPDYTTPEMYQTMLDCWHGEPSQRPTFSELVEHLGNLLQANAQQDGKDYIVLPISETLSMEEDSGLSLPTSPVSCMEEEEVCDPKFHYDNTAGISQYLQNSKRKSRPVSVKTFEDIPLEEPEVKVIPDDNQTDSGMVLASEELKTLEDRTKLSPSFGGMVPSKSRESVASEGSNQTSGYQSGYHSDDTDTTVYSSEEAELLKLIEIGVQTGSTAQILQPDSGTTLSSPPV
Chain of PDGFβ (P09619 33-1106): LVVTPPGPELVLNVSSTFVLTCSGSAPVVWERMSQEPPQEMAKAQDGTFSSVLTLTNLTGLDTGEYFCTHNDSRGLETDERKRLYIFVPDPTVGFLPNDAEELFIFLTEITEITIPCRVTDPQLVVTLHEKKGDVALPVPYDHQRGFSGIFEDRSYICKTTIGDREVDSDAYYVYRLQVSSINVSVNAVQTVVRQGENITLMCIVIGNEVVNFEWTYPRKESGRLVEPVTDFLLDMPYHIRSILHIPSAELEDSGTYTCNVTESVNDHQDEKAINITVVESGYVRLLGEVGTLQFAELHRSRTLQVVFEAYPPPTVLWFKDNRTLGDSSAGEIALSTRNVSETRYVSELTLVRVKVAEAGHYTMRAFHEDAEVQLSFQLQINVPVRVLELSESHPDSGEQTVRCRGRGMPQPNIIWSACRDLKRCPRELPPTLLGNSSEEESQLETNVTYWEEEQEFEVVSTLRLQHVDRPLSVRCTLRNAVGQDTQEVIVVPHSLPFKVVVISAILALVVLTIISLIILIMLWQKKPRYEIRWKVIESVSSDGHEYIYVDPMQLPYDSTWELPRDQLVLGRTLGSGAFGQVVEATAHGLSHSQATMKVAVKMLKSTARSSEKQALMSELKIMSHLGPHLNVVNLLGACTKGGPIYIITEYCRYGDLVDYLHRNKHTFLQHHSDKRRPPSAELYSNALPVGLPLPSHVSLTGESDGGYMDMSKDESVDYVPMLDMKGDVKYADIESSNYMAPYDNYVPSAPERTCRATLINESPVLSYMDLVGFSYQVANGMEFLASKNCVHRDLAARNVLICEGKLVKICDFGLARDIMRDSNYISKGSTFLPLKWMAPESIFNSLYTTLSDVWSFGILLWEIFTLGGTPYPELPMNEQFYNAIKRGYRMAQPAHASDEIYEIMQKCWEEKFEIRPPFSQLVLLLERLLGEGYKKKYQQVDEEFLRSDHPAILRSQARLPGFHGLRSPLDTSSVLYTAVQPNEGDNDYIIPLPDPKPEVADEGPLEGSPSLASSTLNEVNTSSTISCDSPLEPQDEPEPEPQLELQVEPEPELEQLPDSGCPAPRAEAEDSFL

IC50 [1] [nM]	IC50 [2] [nM]	IC50 [3] [nM]	Structure (SMILES)
62	54	42	CCNC(=O)CC[C@H](NC(=O)c1c[nH]c(-c2cc(Oc3cc(C(=O)Nc4cc(C)ccc4F)ccc3F)ccn2)c1)C(=O)NCC (stereo in doubt) [Example 246, N,N′-diethyl-2-[({5-[4-(2-fluoro-5-{[(2-fluoro-5-methylphenyl)amino]carbonyl}phenoxy)pyridin-2-yl]-1H-pyrrol-3-yl}carbonyl)amino]pentanediamide]
	42	8	COC(=O)CCNC(=O)c1c[nH]c(-c2cc(Oc3ccc(NC(=O)Nc4cccc(C)c4)c(F)c3)ccn2)c1 [Example 174, methyl 3-{[(5-{4-[3-fluoro-4-({[(3-methylphenyl)amino]carbonyl}amino)phenoxy]pyridin-2-yl}-1H-pyrrol-3-yl)carbonyl]amino}propanoate]
		15	Cc1ccc(F)c(NC(=O)Nc2ccc(Oc3ccnc(-c4cc(C(=O)NCCCC(=O)NN)c[nH]4)c3)cc2)c1 [Example 177, 5-{4-[4-({[(2-fluoro-5-methylphenyl)amino]carbonyl}amino)phenoxy]pyridin-2-yl}-N-(4-hydrazino-4-oxobutyl)-1H-pyrrole-3-carboxamide]
60		24	COC(=O)CN(CCCNC(=O)c1c[nH]c(-c2cc(Oc3cc(C(=O)Nc4cc(C)ccc4F)ccc3F)ccn2)c1)CC(=O)OC [Example 178, dimethyl 2,2′-({3-[({5-[4-(2-fluoro-5-{[(2-fluoro-5-methylphenyl)amino]carbonyl}phenoxy)pyridin-2-yl]-1H-pyrrol-3-yl}carbonyl)amino]propyl}imino)diacetate]
50		21	COC(=O)CN(CCNC(=O)c1c[nH]c(-c2cc(Oc3cc(C(=O)Nc4cc(C)ccc4F)ccc3F)ccn2)c1)CC(=O)OC [Example 179, dimethyl 2,2′-({2-[({5-[4-(2-fluoro-5-{[(2-fluoro-5-methylphenyl)amino]carbonyl}phenoxy)pyridin-2-yl]-1H-pyrrol-3-yl}carbonyl)amino]ethyl}imino)diacetate]
86		33	Cc1ccc(F)c(NC(=O)c2ccc(F)c(Oc3ccnc(-c4cc(C(=O)NCCN)c[nH]4)c3)c2)c1 [Example 182, N-(2-aminoethyl)-5-[4-(2-fluoro-5-{[(2-fluoro-5-methylphenyl)amino]carbonyl}phenoxy)pyridin-2-yl]-1H-pyrrole-3-carboxamide]
100		24	Cc1ccc(F)c(NC(=O)c2ccc(F)c(Oc3ccnc(-c4cc(C(=O)NCCNC(=O)OC(C)(C)C)c[nH]4)c3)c2)c1 [Example 183, tert-butyl {2-[({5-[4-(2-fluoro-5-{[(2-fluoro-5-methylphenyl)amino]carbonyl}phenoxy)pyridin-2-yl]-1H-pyrrol-3-yl}carbonyl)amino]ethyl}carbamate]
40	63		Cc1ccc(F)c(NC(=O)Nc2ccc(Oc3ccnc(-c4cc(C(=O)N5CCC5)c[nH]4)c3)cc2)c1 [Example 185, 1-[4-({2-[4-(azetidin-1-ylcarbonyl)-1H-pyrrol-2-yl]pyridin-4-yl}oxy)phenyl]-3-(2-fluoro-5-methylphenyl)urea]
42		25	Cc1ccoc1C(=O)Nc1cc(Oc2ccnc(-c3cc(C(=O)NCCCN4CCCCC4)c[nH]3)c2)ccc1F [Example 191, 5-(4-{4-fluoro-3-[(3-methyl-2-furoyl)amino]phenoxy}pyridin-2-yl)-N-(3-piperidin-1-ylpropyl)-1H-pyrrole-3-carboxamide]
34		26	Cc1ccoc1C(=O)Nc1cc(Oc2ccnc(-c3cc(C(=O)NCCCN4CCCC4)c[nH]3)c2)ccc1F [Example 192, 5-(4-{4-fluoro-3-[(3-methyl-2-furoyl)amino]phenoxy}pyridin-2-yl)-N-(3-pyrrolidin-1-ylpropyl)-1H-pyrrole-3-carboxamide]
25		23	Cc1ccoc1C(=O)Nc1cc(Oc2ccnc(-c3cc(C(=O)NCCCN4CCOCC4)c[nH]3)c2)ccc1F [Example 194, 5-(4-{4-fluoro-3-[(3-methyl-2-furoyl)amino]phenoxy}pyridin-2-yl)-N-(3-morpholin-4-ylpropyl)-1H-pyrrole-3-carboxamide]
21		10	Cc1ccc(F)c(NC(=O)Nc2ccc(Oc3ccnc(-c4cc(C(=O)N5CCN(C(=O)OC(C)(C)C)CC5)c[nH]4)c3)cc2F)c1 [Example 224, tert-butyl 4-[(5-{4-[3-fluoro-4-({[(2-fluoro-5-methylphenyl)amino]carbonyl}amino)phenoxy]pyridin-2-yl}-1H-pyrrol-3-yl)carbonyl]piperazine-1-carboxylate]
9		6	Cc1ccc(F)c(NC(=O)Nc2ccc(Oc3ccnc(-c4cc(C(=O)NCCCN5CCCC5)c[nH]4)c3)cc2F)c1 [Example 226, 5-{4-[3-fluoro-4-({[(2-fluoro-5-methylphenyl)amino]carbonyl}amino)phenoxy]pyridin-2-yl}-N-(3-pyrrolidin-1-ylpropyl)-1H-pyrrole-3-carboxamide]
11		9	COCCOC(=O)c1c[nH]c(-c2cc(Oc3ccc(NC(=O)Nc4cc(C)ccc4F)c(F)c3)ccn2)c1 [Example 227, 2-methoxyethyl 5-{4-[3-fluoro-4-({[(2-fluoro-5-methylphenyl)amino]carbonyl}amino)phenoxy]pyridin-2-yl}-1H-pyrrole-3-carboxylate]
14	15		Cc1cccc(NC(=O)Nc2ccc(Oc3ccnc(-c4cc(C(=O)NCCCN5CCC(O)CC5)c[nH]4)c3)cc2)c1 [Example 235, N-[3-(4-hydroxypiperidin-1-yl)propyl]-5-{4-[4-({[(3-methylphenyl)amino]carbonyl}amino)phenoxy]pyridin-2-yl}-1H-pyrrole-3-carboxamide]
		7	Cc1cccc(NC(=O)Nc2ccc(Oc3ccnc(-c4cc(C(=O)OCC(CO)(CO)CO)c[nH]4)c3)cc2)c1 [Example 240, 3-hydroxy-2,2-bis(hydroxymethyl)propyl 5-{4-[4-({[(3-methylphenyl)amino]carbonyl}amino)phenoxy]pyridin-2-yl}-1H-pyrrole-3-carboxylate]
	66	67	COC(=O)CC[C@H](NC(=O)c1c[nH]c(-c2cc(Oc3cc(C(=O)Nc4cc(C)ccc4F)ccc3F)ccn2)c1)C(=O)O [Example 262, 2-[({5-[4-(2-fluoro-5-{[(2-fluoro-5-methylphenyl)amino]carbonyl}phenoxy)pyridin-2-yl]-1H-pyrrol-3-yl}carbonyl)amino]-5-methoxy-5-oxopentanoic acid]
	46	14	CCNC(=O)CC[C@H](NC(=O)c1c[nH]c(-c2cc(Oc3ccc(NC(=O)Nc4cc(C)ccc4F)cc3)ccn2)c1)C(=O)NCC [Example 263, N,N′-diethyl-2-{[(5-{4-[4-({[(2-fluoro-5-methylphenyl)amino]carbonyl}amino)phenoxy]pyridin-2-yl}-1H-pyrrol-3-yl)carbonyl]amino}pentanediamide]
		18	CCNC(=O)[C@H](CCC(=O)OC(C)(C)C)NC(=O)c1c[nH]c(-c2cc(Oc3cccc(NC(=O)c4occc4C)c3)ccn2)c1 [Example 265, tert-butyl 5-(ethylamino)-4-({[5-(4-{3-[(3-methyl-2-furoyl)amino]phenoxyl}pyridin-2-yl)-1H-pyrrol-3-yl]carbonyl}amino)-5-oxopentanoate]
		15	Cc1ccc(F)c(NC(=O)Nc2ccc(Oc3ccnc(-c4cc(C(=O)NCCCN5CCC(C(=O)O)C5)c[nH]4)c3)cc2)c1 (centres unmarked) [Example 268, 1-(3-{[(5-{4-[4-({[(2-fluoro-5-methylphenyl)amino]carbonyl}amino)phenoxy]pyridin-2-yl}-1H-pyrrol-3-yl)carbonyl]amino}propyl)pyrrolidine-3-carboxylic acid]
		19	Cc1ccc(F)c(NC(=O)Nc2ccc(Oc3ccnc(-c4cc(C(=O)NCCCN5CCC(O)CC5)c[nH]4)c3)cc2)c1 [Example 272, 5-{4-[4-({[(2-fluoro-5-methylphenyl)amino]carbonyl}amino)phenoxy]pyridin-2-yl}-N-[3-(4-hydroxypiperidin-1-yl)propyl]-1H-pyrrole-3-carboxamide]
		19	Cc1cccc(NC(=O)c2ccc(F)c(Oc3ccnc(-c4cc(C(=O)NCCC(=O)O)c[nH]4)c3)c2)c1 [Example 275, 3-[({5-[4-(2-fluoro-5-{[(3-methylphenyl)amino]carbonyl}phenoxy)pyridin-2-yl]-1H-pyrrol-3-yl}carbonyl)amino]propanoic acid]
		13	COC(=O)CCNC(=O)c1c[nH]c(-c2cc(Oc3cc(C(=O)Nc4cccc(C)c4)ccc3F)ccn2)c1 [Example 277, methyl 3-[({5-[4-(2-fluoro-5-{[(3-methylphenyl)amino]carbonyl}phenoxy)pyridin-2-yl]-1H-pyrrol-3-yl}carbonyl)amino]propanoate]

Structure (SMILES)	IC50 [1] [nM]	IC50 [2] [nM]	IC50 [3] [nM]
Cc1ccoc1C(=O)Nc1cccc(Oc2ccnc(-c3cc(C(=O)N[C@@H](CCC(=O)OC(C)(C)C)C(=O)O)c[nH]3)c2)c1 [Example 266, 5-tert-butoxy-2-({[5-(4-{3-[(3-methyl-2-furoyl)amino]phenoxy}pyridin-2-yl)-1H-pyrrol-3-yl]carbonyl}amino)-5-oxopentanoic acid]			31
